Source: patent EP0155934B1, “Pharmaceutical compositions for treating androgen-related disorders in humans” (Duke University, priority 1983, dated 1985)

Tests used:
enzyme 5a-reductase = test: 5a-reductase inhibition, assay of R. J. Moore and J. D. Wilson; format: biochemical; details: compared with progesterone
From the text: (§1) The compounds of the present invention represent an important advance over progestrone and derivatives thereof since they are irreversible inhibitors of the enzyme 5a-reductase. Employing the assay of R. J. Moore and J. D. Wilson [Methods in Enzymology, Vol. XXXVI, Academic Press, N.Y., Ed. W. O'Malley and G. Hardman, p.

5a-reductase = test: Time course of inactivation of 5a-reductase after incubation with NADPH and inhibitor (saturation kinetics); format: biochemical; details: Fig. 1
Experimental: The time course of inactivation of 5a-reductase following incubation of the enzyme with NADPH and 17a-acetoxy-6-methyleneprogesterone is shown in Fig. 1.
When these rate constants are plotted (as the t 1/2's) against the reciprocal of the inhibitor concentrations, a straight line i obtained with a positive intercept on the y-axis, indicating a saturation phenomenon (Fig. 2). […] The rate constant for this step (kcat) is 4.8 x 10-^3 s-'.

5α-Reductase = test: Preincubation of enzyme with inhibitor and NADPH, tenfold dilution, then assay for 5a-reductase activity; format: biochemical; details: for Picomol Testosterone reduced/mg protein in 45 min + SEM: testosterone 5x10^-8, NADPH 5x10^-4; for manner of combination with / inactivation of the enzyme: in the presence of the co-factor NADPH
From the text: as §1

[1] = tested on: cell-culture preparations of human prostate; details: thereby inhibiting growth of the tissue; cited from earlier work
[2] = topical administration of a 0.5% solution in aqueous ethanol; cited from earlier work

Structure (SMILES): C=C1C[C@H]2[C@@H]3CC[C@H](C(C)=O)[C@@]3(C)CC[C@@H]2[C@@]2(C)CCC(=O)C=C12 [6-methyleneprogesterone]
- potency as inhibitors of the enzyme (enzyme 5a-reductase): equipotent with progesterone

Structure (SMILES): C=C1C[C@@H]2[C@H](CC[C@@]3(C)[C@H]2CC[C@]3(OC(C)=O)C(C)=O)[C@@]2(C)CCC(=O)C=C12 [17a-acetoxy-6-methyleneprogesterone, 17-Acetoxy-6-methylene-4-pregnen-3,20-dione]
- time course of inactivation of the enzyme (5a-reductase): pseudo first-order kinetics
- Picomol Testosterone reduced/mg protein in 45 min + SEM (5α-Reductase; A: preincubation 15 min with inhibitor 5x10^-7 M and NADPH 6x10^-5, assay: inhibitor 5x10^-8 M, n = 6): 0.71±0.018n = 6 Picomol Testosterone reduced/mg protein in 45 min
- Picomol Testosterone reduced/mg protein in 45 min + SEM (5α-Reductase; B: preincubation 15 min without inhibitor, NADPH 6x10^-5, assay: inhibitor 5x10^-8 M, n = 6): 3.0 ±0.26n = 6 Picomol Testosterone reduced/mg protein in 45 min
- Picomol Testosterone reduced/mg protein in 45 min + SEM (5α-Reductase; C: preincubation 15 min without inhibitor and without NADPH, assay: inhibitor 5x10^-8 M, n = 6): 2.83±0.09n = 6 Picomol Testosterone reduced/mg protein in 45 min
- Picomol Testosterone reduced/mg protein in 45 min + SEM (5α-Reductase; D: preincubation 15 min with inhibitor 5x10^-7 M, no NADPH, assay: inhibitor 5x1-^-8 M, n = 6): 2.63±0.18n = 6 Picomol Testosterone reduced/mg protein in 45 min
- Picomol Testosterone reduced/mg protein in 45 min + SEM (5α-Reductase; F: no preincubation, assay: inhibitor 5x10^-8 M, n = 4): 3.14±0.20n = 4 Picomol Testosterone reduced/mg protein in 45 min
- manner of combination with / inactivation of the enzyme (5α-Reductase): irreversible
- enzyme activity lost (5α-Reductase; preincubation with inhibitor and NADPH, diluting tenfold, assaying for 5a-reductase activity): 75%
- potency as inhibitors of the enzyme (enzyme 5a-reductase): equipotent with progesterone

Structure (SMILES): CC(=O)[C@H]1CC[C@H]2[C@@H]3CCC4=CC(=O)CC[C@]4(C)[C@H]3CC[C@]12C [Progesterone, reference compound]
- manner of combination with / inactivation of the enzyme (5α-Reductase): competitive and reversible
- enzyme inactivation on preincubation (5α-Reductase; similar preincubation of the enzyme (with NADPH)): does not result in enzyme inactivation
- inhibition of the enzyme [1]: strongly inhibits
- males with acne with an important decrease in sebum secretion [2]: 45/53
